# In patent US20250249113A1, “LIGAND-DRUG-CONJUGATES WITH IMPROVED PHARMACOKINETIC AND DRUG RELEASE PROPERTIES” (Debiopharm Research & Manufacturing S.A., priority 2022, published 2025):
# Where a SMILES comes first, the peptide text is derived from it. Side-chain parts run from the residue outwards. [ ]: non-standard residue; d: D form. The star is where a group is joined. DM1Mal(CH2)2CO = COc1cc2cc(c1Cl)N(C)C(=O)C[C@H](OC(=O)[C@H](C)N(C)C(=O)CCSC1CC(=O)N(CCC(=O)*)C1=O)[C@]1(C)O[C@H]1[C@H](C)[C@@H]1C[C@@](O)(NC(=O)O1)[C@H](OC)/C=C/C=C(\C)C2; X1 = CC(=O)N[C@@H](CSC1CC(=O)N(CCC(=O)*)C1=O)C(=O)O; Dolaproine = CO[C@@H]([C@@H]1CCCN1)[C@@H](C)C(=O)O; Dil = CC[C@H](C)[C@H](NC)[C@@H](CC(=O)O)OC; NMe2Val = CC(C)[C@@H](C(=O)*)N(C)C; PEG5 = NCCOCCOCCOCCOCCOCCC(=O)O; Cit = NC(=O)NCCC[C@H](N)C(=O)O; PEG4 = NCCOCCOCCOCCOCCC(=O)O
# How the values were obtained:
# Cathepsin B = target: T1, Cathepsin B (Homo sapiens, UniProt P07858); assay: Cat B-induced cleavage study (in vitro enzymatic cleavage assay, UHPLC-MS/MS); type: biochemical; details: for Ratio (T1/2 Compound/T1/2 Reference): reference: Cys-MC-Val-Cit-PABC-MMAF; for half-life at 10 μM: human, recombinant human Cathepsin B, 10 μM compound, Cathepsin B 2 μg/mL, 25 mM MES buffer pH 5.0, 37° C., read-out: T1/2 Compound
# T1 construct: purchased R&D Systems, Bio-Techne AG 953-CY-010
# Description: (§1) The propensity of compounds 1-13 to be cleaved by Cathepsin B—was evaluated according to an in vitro enzymatic cleavage assay using recombinant human Cathepsin B and UHPLC-MS/MS analysis as described below.
# (§2) Reference compounds Cys-MC-Val-Cit-PABC-MMAF and MMAF were used as positive controls. The enzyme was reconstituted in 25 mM MES buffer adjusted at pH 5.0 with a 1M NaOH solution and then activated with a […] solution of DDT at room temperature for at least 15 min.
# (§3) The in vitro enzymatic assay was conducted at 37° C. with the test compounds at a concentration of 10 μM (2.5 μM when the test compound is an antibody-drug conjugate) in the presence of activated recombinant human Cathepsin B enzyme at 2 μg/mL in a 25 mM MES buffer pH 5.0. The enzymatic cleavage reaction was stopped for each defined time point by mixing an equal volume of acetonitrile+0.1% FA containing an internal standard (warfarine at 8 μM).
# (§4) Analysis was conducted using a Waters Acquity UPLC System coupled to a Waters Xevo TQ triple quad mass spectrometer. UHPLC was conducted depending on the test compounds with a BEH C8 1.7 μm 100×2.1 mm or BEH C18 1.7 μm 50×2.1 mm or HSS T3 1.7 μm 50×2.1 mm columns heated at 45° C. or 50° C. and fitted with 2 μm insert filter pre-columns (available from Waters), and solvent systems A1 (H2O+0.1% FA) and B1 (acetonitrile+0.1% FA) at a flow rate of 0.6 mL/min and a 10-95% gradient of B1 over 1.9 min.
# (§5) MS/MS was performed using electrospray ionization (ESI) interface in positive mode and specific MRM transitions for each tested compound.
# [1] = target: T2, Cathepsin B (exo-Cat B cleavage) (Homo sapiens, UniProt P07858); assay: as above; type: biochemical; details: human, recombinant human Cathepsin B, pH 5; read-out: T1/2 (cleavage by exo-Cat B)
# T2 construct: purchased R&D Systems, Bio-Techne AG 953-CY-010
# Description: as §1, §2, §3, §4, §5
# [2] = DRF toxicity study of DM1-Ac-Cit and DM1-Ac-Cit-Lys(Cys-ma-Lys(PEG16))-Tyr-OH, 2 intravenous bolus injections (Day 1 and Day 8), female mice; type: in vivo, mouse; details: for related mortalities, clinical observations or effects on body weights and food consumption / related ophthalmic findings or changes in clinical pathology parameters / related organ weight changes, macroscopic and microscopic findings: DM1-Ac-Cit 0.15, 0.68 or 1.4 mg/kg/adm, DM1-Ac-Cit-Lys(Cys-ma-Lys(PEG16))-Tyr-OH 3.5 mg/kg/adm, 2 i.v. injections
# Description: The objectives of this study were to determine the potential toxicity of Multilink-DM1-Ac-Cit and DM1-Ac-Cit-Lys(Cys-ma-Lys(PEG16))-Tyr-OH when administered intravenously (via bolus injection).
# 2 injections of the same dose of either DM1-Ac-Cit ((test item 1) at 0.15, 0.68 or 1.4 mg/kg/adm) or 2 injections of the same dose of DM1-Ac-Cit-Lys(Cys-ma-Lys(PEG16))-Tyr-OH ((test item 2) at 3.5 mg/kg/adm were administered separately (on Day 1 and Day 8 (7-day interval) to CD-1® IGS mice, and the reversibility and/or delayed occurrence of any findings were evaluated during a 10-day observation period. In addition, the toxicokinetic characteristics of DM1-Ac-Cit-Lys(Cys-ma-Lys(PEG16))-Tyr-OH, DM1-Ac-Cit, and the catabolite DM1 were determined.
# A control group received the Vehicle Control 1: 8% Ethanol/8% Polysorbate (Tween*) 80/PBS 84%.
# The study design was as follows:
# The following parameters and end points were evaluated in this study: mortality, clinical observations, body weights, food consumption, ophthalmology, clinical pathology parameters (hematology and clinical chemistry), toxicokinetic parameters, organ weights, and macroscopic and microscopic examinations.
Molecule,Ratio (T1/2 Compound/T1/2 Reference) (Cathepsin B),half-life at 10 μM (Cathepsin B),other results
"CC[C@H](C)[C@@H]([C@@H](CC(=O)N1CCC[C@H]1[C@H](OC)[C@@H](C)C(=O)N[C@@H](Cc1ccccc1)C(=O)N[C@@H](CCCNC(=N)N)C(=O)N[C@@H](CCCCNC(=O)CCOCCOCCOCCOCCOCCNC(=O)CCN1C(=O)CC(SC[C@H](NC(C)=O)C(=O)O)C1=O)C(=O)N[C@@H](Cc1ccccc1)C(=O)O)OC)N(C)C(=O)[C@@H](NC(=O)[C@H](C(C)C)N(C)C)C(C)C (stereo partly drawn) [Compound 1, AF-Arg-Lys(PEG4-Mal-Cys-Ac)-Phe-OH] (NMe2Val-V[Dil][Dolaproine]FRK([PEG5-X1])F-OH; N-terminus assumed)",0.12,,
"CC[C@H](C)[C@@H]([C@@H](CC(=O)N1CCC[C@H]1[C@H](OC)[C@@H](C)C(=O)N[C@@H](Cc1ccccc1)C(=O)N[C@@H](CCCNC(=N)N)C(=O)N[C@@H](Cc1ccccc1)C(=O)N[C@@H](CCCCNC(=O)CCOCCOCCOCCOCCNC(=O)CCN1C(=O)CC(SC[C@H](NC(C)=O)C(=O)O)C1=O)C(=O)O)OC)N(C)C(=O)[C@@H](NC(=O)[C@H](C(C)C)N(C)C)C(C)C (stereo partly drawn) [Compound 3, AF-Arg-Phe-Lys(PEG4-Mal-Cys-Ac)-OH] (NMe2Val-V[Dil][Dolaproine]FRFK([PEG4-X1])-OH; N-terminus assumed)",0.11,,
"COc1cc2cc(c1Cl)N(C)C(=O)C[C@H](OC(=O)[C@H](C)N(C)C(=O)CCSC1CC(=O)N(CCC(=O)N[C@@H](Cc3ccccc3)C(=O)N[C@@H](CCCCN)C(=O)N[C@@H](CCCCNC(=O)CCOCCOCCOCCOCCNC(=O)CCN3C(=O)CC(SC[C@H](NC(C)=O)C(=O)O)C3=O)C(=O)N[C@@H](Cc3ccccc3)C(=O)O)C1=O)[C@]1(C)O[C@H]1[C@H](C)[C@@H]1C[C@@](O)(NC(=O)O1)[C@H](OC)/C=C/C=C(\C)C2 (stereo partly drawn) [Compound 5, DM1-Mal-Phe-Lys-Lys(PEG4-Mal-Cys-Ac)-Phe-OH] ({DM1Mal(CH2)2CO}-FKK([PEG4-X1])F-OH; N-terminus assumed)",0.05,36 s,"Cat B-induced drug release, faster as compared to reference Cys-MC-Val-Cit-PABC-MMAF (Cathepsin B): 20 times"
"COc1cc2cc(c1Cl)N(C)C(=O)C[C@H](OC(=O)[C@H](C)N(C)C(=O)CCSC1CC(=O)N(CCC(=O)N[C@@H](Cc3ccccc3)C(=O)N[C@@H](CCCNC(N)=O)C(=O)N[C@@H](CCCCNC(=O)CCOCCOCCOCCOCCNC(=O)CCN3C(=O)CC(SC[C@H](NC(C)=O)C(=O)O)C3=O)C(=O)N[C@@H](Cc3ccccc3)C(=O)O)C1=O)[C@]1(C)O[C@H]1[C@H](C)[C@@H]1C[C@@](O)(NC(=O)O1)[C@H](OC)/C=C/C=C(\C)C2 (stereo partly drawn) [Compound 6, DM1-Mal-Phe-Cit-Lys(PEG4-Mal-Cys-Ac)-Phe-OH] ({DM1Mal(CH2)2CO}-F[Cit]K([PEG4-X1])F-OH; N-terminus assumed)",0.02,18 s,
"COc1cc2cc(c1Cl)N(C)C(=O)C[C@H](OC(=O)[C@H](C)N(C)C(=O)CCSC1CC(=O)N(CCC(=O)N[C@@H](Cc3ccccc3)C(=O)N[C@@H](CCCNC(N)=O)C(=O)N[C@@H](Cc3ccccc3)C(=O)N[C@@H](CCCCNC(=O)CCOCCOCCOCCOCCNC(=O)CCN3C(=O)CC(SC[C@H](NC(C)=O)C(=O)O)C3=O)C(=O)O)C1=O)[C@]1(C)O[C@H]1[C@H](C)[C@@H]1C[C@@](O)(NC(=O)O1)[C@H](OC)/C=C/C=C(\C)C2 (stereo partly drawn) [Compound 7, DM1-Mal-Phe-Cit-Phe-Lys(PEG4-Mal-Cys-Ac)-OH] ({DM1Mal(CH2)2CO}-F[Cit]FK([PEG4-X1])-OH; N-terminus assumed)",0.09,72 s,
"CC[C@H](C)[C@@H]([C@@H](CC(=O)N1CCC[C@H]1[C@H](OC)[C@@H](C)C(=O)N[C@@H](Cc1ccccc1)C(=O)N[C@@H](CCCNC(N)=O)C(=O)N[C@@H](CCCCNC(=O)CCOCCOCCOCCOCCNC(=O)CCN1C(=O)CC(SC[C@H](NC(C)=O)C(=O)O)C1=O)C(=O)N[C@@H](Cc1ccccc1)C(=O)O)OC)N(C)C(=O)[C@@H](NC(=O)[C@H](C(C)C)N(C)C)C(C)C (stereo partly drawn) [Compound 8, AF-Cit-Lys(PEG4-Mal-Cys-Ac)-Phe-OH] (NMe2Val-V[Dil][Dolaproine]F[Cit]K([PEG4-X1])F-OH; N-terminus assumed)",0.09,,
"COc1cc2cc(c1Cl)N(C)C(=O)C[C@H](OC(=O)[C@H](C)N(C)C(=O)CCSC1CC(=O)N(CC3CCC(C(=O)N[C@@H](Cc4ccccc4)C(=O)N[C@@H](CCCNC(N)=O)C(=O)N[C@@H](CCCCNC(=O)CCOCCOCCOCCOCCOCCNC(=O)CN4C(=O)CC(SC[C@H](NC(C)=O)C(=O)O)C4=O)C(=O)N[C@@H](Cc4ccc(O)cc4)C(=O)O)CC3)C1=O)[C@]1(C)O[C@H]1[C@H](C)[C@@H]1C[C@@](O)(NC(=O)O1)[C@H](OC)/C=C/C=C(\C)C2 (stereo partly drawn) [Compound 11, DM1-Mcc-Phe-Cit-Lys(PEG5-Ma-Cys-Ac)-Tyr-OH]",0.005,3.6 s,half-life [1]: ≤ 60 s
"COc1cc2cc(c1Cl)N(C)C(=O)C[C@H](OC(=O)[C@H](C)N(C)C(=O)CCSC1CC(=O)N(CC3CCC(C(=O)N[C@@H](CCCNC(N)=O)C(=O)N[C@@H](CCCCNC(=O)CCOCCOCCOCCOCCOCCNC(=O)CN4C(=O)CC(SC[C@H](NC(C)=O)C(=O)O)C4=O)C(=O)N[C@@H](Cc4ccc(O)cc4)C(=O)O)CC3)C1=O)[C@]1(C)O[C@H]1[C@H](C)[C@@H]1C[C@@](O)(NC(=O)O1)[C@H](OC)/C=C/C=C(\C)C2 (stereo partly drawn) [Compound 12, DM1-Mcc-Cit-Lys(PEG5-Ma-Cys-Ac)-Tyr-OH]",0.00004,,half-life [1]: ≤ 60 s
DM1-Ac-Cit,,,"tolerability ([2]; 2 i.v. bolus injections at 7-day interval at 0.15, 0.68, and 1.4 mg/kg/adm, female CD-1 mice): well tolerated; related mortalities, clinical observations or effects on body weights and food consumption [2]: no; related ophthalmic findings or changes in clinical pathology parameters [2]: no; related organ weight changes, macroscopic and microscopic findings [2]: no macroscopic and microscopic findings; no observed adverse effect level (NOAEL) ([2]; DM1-Ac-Cit, 2 i.v. bolus injections at 7-day interval, female CD-1 mice): 1.4 mg/kg/adm"
DM1-Ac-Cit-Lys(Cys-ma-Lys(PEG16))-Tyr-OH,,,"tolerability ([2]; 2 i.v. bolus injections at 7-day interval at 3.5 mg/kg/adm): well tolerated; related mortalities, clinical observations or effects on body weights and food consumption [2]: no; related ophthalmic findings or changes in clinical pathology parameters [2]: no; related organ weight changes, macroscopic and microscopic findings [2]: no macroscopic and microscopic findings"
